In ChEMBL document CHEMBL4406802, “Human disorders associated with inflammation and the evolving role of natural products to overcome” (Eur J Med Chem, 2019) one finds IC50 data, which are given here for two compounds.

Common to all, as to assay type: functional, cell-based
Test [1] relates to RAW264.7. Briefly: Antiinflammatory activity in mouse RAW264.7 cells assessed as inhibition of nitric oxide production.
The test system of a further test is BV-2. Briefly: Antiinflammatory activity in mouse BV2 cells assessed as inhibition of LPS-induced nitric oxide production.
Test [2] relates to RAW264.7. Briefly: Antiinflammatory activity in mouse RAW264.7 cells assessed as inhibition of LPS-induced nitric oxide production.

On to `COc1cc2c(cc1C)C1=C(C)C(=O)OC1C(O)C2C` (stereo not drawn), for which the IC50 with RAW264.7 [1] was found to be 51.9 µM.

For `C=C1[C@@H]([C@@]2(C)[C@@H](O)CC(=O)C(C)(C)[C@@H]2[C@@H](O)C(=O)OC)CC[C@@]2(C)[C@H](C3=C[C@@H](O)CC3=O)CC(=O)C[C@]12O`, the IC50 in the test on BV-2 turned out to be 4.97 µM; with RAW264.7 [2], 5.04 µM.

The IC50 is the concentration at which inhibition is half-maximal.
